# Experimental data from patent US20160113931A1, “Method of treating and/or preventing neurodegenerative diseases” (University of Macau, priority 2014, published 2016).
# “Also recorded” adds a separate entry of the source.
# Key:
# zebrafish = test: MPTP-induced deficit of locomotion behavior in zebrafish larvae; format: in vivo, Danio rerio
# Method: Three dpf zebrafish embryos were co-incubated with 10 μM MPTP and BHDPC at the indicated concentrations for 96 hours, and zebrafish larval co-treated with MPTP and 150 μM L-dopa was used as positive control. After treatment, zebrafish were collected to perform locomotion behavior test using Viewpoint Zebrabox system and total distances travelled in 10 min were calculated.
# The AB strain of wild type zebrafish (Danio rerio) was maintained as described in the Zebrafish Handbook. Zebrafish were staged by days post fertilization […]. For breeding, groups of male and female (3:2) adult zebrafish were placed in 10-L plastic aquarium equipped with spawning nets in the evening. In the following morning, eggs were collected from the breeding group tanks. Normally developed fertilized eggs were selected under a stereomicroscope for further studies. The MPTP manipulation was performed with appropriate safety precautions and all MPTP-containing water was bleached.
# In addition, MPTP markedly altered the swimming behavior of the zebrafish as a consequence of DA neuronal injury. […] BHDPC ameliorated MPTP-induced deficit of swimming behavior. At the same condition, MPTP-induced deficit of swimming behavior were rescued by positive controls, levodopa (L-dopa) (FIG. 16).
# SH-SY5Y cells [1] = test: Effect of PKA inhibitor H89 on BHDPC neuroprotection under MPP+ cytotoxicity; format: cell-based, human; details: with H89
# From the text: To further confirm the involvement of PKA activation in the protective effects of BHDPC, H89, a PKA inhibitor was used to measure cell survival under MPP^+ cytotoxicity (FIG. 9).
# [2] = tested on: PKA/CREB/Bcl2 signaling pathway; test: Western blotting of phosphorylated PKA, phosphorylated CREB and Bcl2 in SH-SY5Y cells; format: cell-based, human
# Method: Cells were pre-treated with 30 μM BHDPC for 2 h.
# Cells were pre-treated with BHDPC (3, 10 and 30 μM) for 2 h and then were collected at 120 min. […] The expression ratios of phosphorylated PKA, phosphorylated CREB and Bcl2 proteins as detected by Western blotting with specific antibodies were shown in FIGS. 8B, 8C and 8D respectively.
# After treatment, SH-SY5Y cells were collected and washed three times with ice-cold PBS. Then the harvested cells were lysed on ice for 30 min in RIPA lysis buffer containing 1% PMSF and 1% Protease Inhibitor Cocktail and centrifuged at 12,500×g for 20 min at 4° C. The supernatant was collected and protein concentrations were determined using the BCA protein assay kit (Thermo Scientific Pierce). Aliquots of protein samples (30 μg) were boiled for 5 min at 95° C. and electrophoresed on SDS-PAGE (10% (w/v) polyacrylamide gel) and then transferred to a polyvinylidene difluoride (PVDF) membrane (Bio-Rad, Hercules, Calif.). Subsequently, the membrane was blocked with 5% (w/v) non-fat milk in PBST (PBS containing 0.1% Tween-20) for 2 h at room temperature. The blots were incubated overnight at 4° C. with primary antibodies. After washed with PBST for 20 min at room temperature, the membranes were further incubated with horseradish peroxidase-conjugated secondary antibodies for 2 h at room temperature. Finally, protein bands were visualized using an ECL plus Western blotting detection reagents (GE Healthcare, Piscataway, N.J., USA). The membranes were then scanned on a Bio-Rad ChemiDoc XRS Imaging System and the intensity of the protein bands were analyzed using the Bio-Rad Quantity One Software (4.5.2).
# To determine which survival signaling pathway is regulated by BHDPC, SH-SY5Y cells were pre-treated with 30 μM BHDPC for 2 h, and then the phosphorylation of PKA at […] were examined by Western blot analysis. […] The inventors also determined whether BHDPC affected the phosphorylation of CREB. […] Bcl2 is a well-known anti-apoptotic protein. The inventors determined whether BHDPC affected the expression of Bcl2.
# SH-SY5Y cells [3] = test: MPP+-induced mitochondrial membrane potential loss (JC-1 assay); format: cell-based, human; details: 2 h pre-treatment; for mitochondrial membrane potential (Δφm) compared to the control group: 2 mM MPP+, MPP+ alone 51%
# Method: (FIG. 6A) Δψm was determined by the JC-1 assay.
# JC-1 dye was used to monitor mitochondrial integrity. In brief, SH-SY5Y cells were seeded into black 96-well plates (5×10^3 cells/well). After treatment, the cells were incubated with JC-1 (10 μg/mL in medium) at 37° C. for 15 min and then washed twice with PBS. For signal quantification, the intensity of red fluorescence (excitation 560 nm, emission 595 nm) and green fluorescence (excitation 485 nm, emission 535 nm) were determined using a SpectraMax M5. Mitochondrial membrane potential (Δφm) was calculated as the ratio of JC-1 red/green fluorescence intensity and the value was normalized to the control group.
# Loss of mitochondrial membrane potential and apoptotic nuclei were hallmarks for early and late stage of apoptosis. To determine whether BHDPC could reduce MPP^+-induced mitochondrial membrane potential (Δφm) loss, the Δφm in SH-SY5Y cells was assessed by analyzing the red/green fluorescent intensity ratio of JC-1 staining (FIG. 6A).
smiles,measurement,setting,value
"COc1cc(C2C(C(=O)OCc3ccccc3)=C(C)Nc3nnnn32)ccc1O (centres unmarked) [BHDPC, benzyl 7-(4-hydroxy-3-methoxyphenyl)-5-methyl-4,7-dihydrotetrazolo[1,5-a]pyrimidine-6-carboxylate]",swimming behaviour of normal zebrafish larvae,zebrafish; BHDPC treatment alone,notably altered
same,MPTP-induced deficit of swimming behavior (total distance travelled in 10 min),"zebrafish; co-incubated with 10 μM MPTP, 96 hours, 3 dpf",ameliorated; also recorded: attenuated
same,neuroprotective effect of BHDPC in presence of PKA inhibitor H89,SH-SY5Y cells [1],abolished
same,"phosphorylation intensity of PKA, time course","[2]; 30 μM, 0 to 120 min, particularly at 90 and 120 min",gradually increased; also recorded: activated PKA signaling pathway
same,"expression of Bcl2, dose-dependent","[2]; 3, 10 and 30 μM, 2 h",up-regulated
same,"phosphorylation intensity of CREB, dose-dependent","[2]; 3, 10 and 30 μM, 2 h",increased
same,"phosphorylation intensity of PKA, dose-dependent","[2]; 3, 10 and 30 μM, 2 h",increased
same,mitochondrial membrane potential (Δφm) compared to the control group,SH-SY5Y cells [3]; 3 μM,53%
same,mitochondrial membrane potential (Δφm) compared to the control group,SH-SY5Y cells [3]; 10 μM,64%
same,"MPP+-induced mitochondrial membrane potential (Δψm) loss, in words","SH-SY5Y cells [3]; 30 μM, 2 mM MPP+ 36 h",attenuated
same,mitochondrial membrane potential (Δφm) compared to the control group,SH-SY5Y cells [3]; 30 μM,75%
